Results: patent US10787430B2, “Hemoglobin modifier compounds and uses thereof” (FronThera U.S. Pharmaceuticals LLC, priority 2016, dated 2020)

Biological target: T1, hemoglobin (20% hct blood) (Homo sapiens, UniProt P68871+P69905)
T1 construct: Normal whole blood was collected from adult healthy donors; from tissue; host or cells: normal human whole blood (red blood cells), adult healthy donors
Test: Dose-dependent whole blood OEC studies
Assay type: cell-based
Details: 37° C., 1 hr; for delta p50 0.2 mM: 0.2 mM compound; for delta p50 0.5 mM: 0.5 mM compound
Protocol: Materials: Normal whole blood was collected from adult healthy donors at the Virginia Commonwealth University after informed consent. The use of these human samples is in accordance with regulations of the IRB for Protection of Human Subjects. Compounds (50 mM-100 mM concentration in DMSO) were stored at 15° C. or room temperature until use.
To 2 ml 20% hct blood, 0.2 or 0.5 or 1 mM compound was added and kept shaking at 37° C. for 1 hr. OEC analysis was performed as described above to determine partial pressure of oxygen (pO2) and Hb oxygen saturation values (sO2). A control without compound but containing equivalent amount of DMSO was performed (1%). GBT440 was used as a positive control. Table 2 below lists the delta p50% values.

T1 sequence (P69905 2-142 limits assumed): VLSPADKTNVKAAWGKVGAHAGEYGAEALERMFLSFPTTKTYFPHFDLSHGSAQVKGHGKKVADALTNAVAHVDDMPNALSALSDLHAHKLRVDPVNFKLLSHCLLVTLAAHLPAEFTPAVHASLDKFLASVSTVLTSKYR
T1 sequence (P68871 2-147 limits assumed): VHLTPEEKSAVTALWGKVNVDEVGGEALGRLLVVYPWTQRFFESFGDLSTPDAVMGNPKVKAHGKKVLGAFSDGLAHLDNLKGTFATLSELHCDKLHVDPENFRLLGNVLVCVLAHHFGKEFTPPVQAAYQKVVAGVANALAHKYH

Row | delta p50 0.2 mM [%] | delta p50 0.5 mM | Structure (SMILES)
1 | −12.80 | −37.60% | CC(C)n1nccc1-c1ncccc1COc1ccc2sncc2c1C=O [Example 11, 5-((2-(1-isopropyl-1H-pyrazol-5-yl)pyridin-3-yl)methoxy)benzo[d]isothiazole-4-carbaldehyde]
2 | −8.90 | −14.70% | CC(C)n1nccc1-c1ncccc1COc1ccc2scnc2c1C=O [Example 16, 5-((2-(1-isopropyl-1H-pyrazol-5-yl)pyridin-3-yl)methoxy)benzo[d]thiazole-4-carbaldehyde]
3 | −12 | −30% | CC(C)n1nccc1-c1ncccc1COc1ccc2snnc2c1C=O [Example 17, 5-((2-(1-isopropyl-1H-pyrazol-5-yl)pyridin-3-yl)methoxy)benzo[d][1,2,3]thiadiazole-4-carbaldehyde]
4 | −2.80 | −8.10% | CC(C)n1nccc1-c1ncccc1COc1ccc2nnsc2c1C=O [Example 18, 6-((2-(1-isopropyl-1H-pyrazol-5-yl)pyridin-3-yl)methoxy)benzo[d][1,2,3]thiadiazole-7-carbaldehyde]
5 | −11.10 | −26.10% | [2H]C([2H])(Oc1cc(F)cc(O)c1C=O)c1cccnc1-c1c(F)cnn1C(C)C [Example 26, 4-fluoro-2-((2-(4-fluoro-1-isopropyl-1H-pyrazol-5-yl)pyridin-3-yl)methoxy-d2)-6-hydroxybenzaldehyde]
6 | −9.80 | −36.10% | [2H]C([2H])([2H])C(n1nccc1-c1ncccc1COc1cc(F)cc(O)c1C=O)C([2H])([2H])[2H] [Example 31, 4-fluoro-2-hydroxy-6-((2-(1-(propan-2-yl-1,1,1,3,3,3-d6)-1H-pyrazol-5-yl)pyridin-3-yl)methoxy)benzaldehyde]
7 | −12.70 | −39.20% | [2H]C([2H])([2H])C(n1ncc(F)c1-c1ncccc1COc1cccc(O)c1C=O)C([2H])([2H])[2H] [Example 32, 2-((2-(4-fluoro-1-(propan-2-yl-1,1,1,3,3,3-d6)-1H-pyrazol-5-yl)pyridin-3-yl)methoxy)-6-hydroxybenzaldehyde]
8 | −12.70 | −39.70% | [2H]C([2H])([2H])C(n1nccc1-c1ncccc1COc1ccc2ncoc2c1C=O)C([2H])([2H])[2H] [Example 33, 6-((2-(1-(propan-2-yl-1,1,1,3,3,3-d6)-1H-pyrazol-5-yl)pyridin-3-yl)methoxy)benzo[d]oxazole-7-carbaldehyde]
9 | −9.30 | −14% | [2H]C([2H])([2H])C(n1nccc1-c1ncncc1COc1cc(F)cc(O)c1C=O)C([2H])([2H])[2H] [Example 36, 4-fluoro-2-hydroxy-6-((4-(1-(propan-2-yl-1,1,1,3,3,3-d6)-1H-pyrazol-5-yl)pyrimidin-5-yl)methoxy)benzaldehyde]
10 | −16.20 | −46.10% | [2H]C([2H])([2H])C(n1nccc1-c1ncncc1COc1cccc(O)c1C=O)C([2H])([2H])[2H] [Example 37, 2-hydroxy-6-((4-(1-(propan-2-yl-1,1,1,3,3,3-d6)-1H-pyrazol-5-yl)pyrimidin-5-yl)methoxy)benzaldehyde]
11 | −6 | −12% | [2H]C([2H])(Oc1ccc(F)c(O)c1C=O)c1cncnc1-c1ccnn1C(C)C [Example 40, 3-fluoro-2-hydroxy-6-((4-(1-isopropyl-1H-pyrazol-5-yl)pyrimidin-5-yl)methoxy-d2)benzaldehyde]
12 | −14.40 | −30.20% | [2H]C([2H])(Oc1cccc(O)c1C=O)c1cncnc1-c1c(F)cnn1C(C)C [Example 41, 2-((4-(4-fluoro-1-isopropyl-1H-pyrazol-5-yl)pyrimidin-5-yl)methoxy-d2)-6-hydroxybenzaldehyde]
13 | −6.90 | −22.10% | [2H]C([2H])(Oc1cc(F)cc(O)c1C=O)c1cncnc1-n1ccnc1C(C)C [Example 44, 4-fluoro-2-hydroxy-6-((4-(2-isopropyl-1H-imidazol-1-yl)pyrimidin-5-yl)methoxy-d2)benzaldehyde]
14 | −10 | −29.80% | [2H]C([2H])(Oc1cccc(O)c1C=O)c1cccnc1-n1ccnc1C1CC1 [Example 45, 2-((2-(2-cyclopropyl-1H-imidazol-1-yl)pyridin-3-yl)methoxy-d2)-6-hydroxybenzaldehyde]
15 | −12.80 | −37.90% | [2H]C([2H])(Oc1cccc(O)c1C=O)c1ncccc1-c1ccnn1C(C)C [Example 46, 2-hydroxy-6-((3-(1-isopropyl-1H-pyrazol-5-yl)pyridin-2-yl)methoxy-d2)benzaldehyde]
16 | −15.30 | −40.80% | [2H]C([2H])(Oc1cc(F)cc(O)c1C=O)c1ncccc1-c1ccnn1C(C)C [Example 47, 4-fluoro-2-hydroxy-6-((3-(1-isopropyl-1H-pyrazol-5-yl)pyridin-2-yl)methoxy-d2)benzaldehyde]
17 | −20.50 | −37.80% | CC(C)n1nccc1-c1ncncc1COc1ccc2ncsc2c1C=O [Example 53, 6-((4-(1-isopropyl-1H-pyrazol-5-yl)pyrimidin-5-yl)methoxy)benzo[d]thiazole-7-carbaldehyde]
18 | −12.00 | −35.00% | CC(C)n1nccc1-c1ncncc1COc1ccc2ncoc2c1C=O [Example 54, 6-((4-(1-isopropyl-1H-pyrazol-5-yl)pyrimidin-5-yl)methoxy)benzo[d]oxazole-7-carbaldehyde]

More lines, now with the values behind:

Row | Structure (SMILES) | delta p50 0.2 mM [%] | delta p50 0.5 mM
19 | CC(C)n1nccc1-c1ncccc1COc1ccc2ncsc2c1C=O [Example 12, 6-((2-(1-isopropyl-1H-pyrazol-5-yl)pyridin-3-yl)methoxy)benzo[d]thiazole-7-carbaldehyde] | −26.60 | −58.40%
20 | CC(C)n1nccc1-c1ncccc1COc1ccc2ncncc2c1C=O [Example 19, 6-((2-(1-isopropyl-1H-pyrazol-5-yl)pyridin-3-yl)methoxy)quinazoline-5-carbaldehyde] | −8.20 | −18.10%
21 | CC(C)n1ncc(F)c1-c1ncccc1COc1ccc2ncoc2c1C=O [Example 22, 6-((2-(4-fluoro-1-isopropyl-1H-pyrazol-5-yl)pyridin-3-yl)methoxy)benzo[d]oxazole-7-carbaldehyde] | −12.90 | −35.50%
22 | [2H]C([2H])(Oc1cccc(O)c1C=O)c1cccnc1-c1c(F)cnn1C(C)C [Example 25, 2-((2-(4-fluoro-1-isopropyl-1H-pyrazol-5-yl)pyridin-3-yl)methoxy-d2)-6-hydroxybenzaldehyde] | −14.30 | −36.10%
23 | [2H]C([2H])(Oc1ccc2ncoc2c1C=O)c1cccnc1-c1ccnn1C(C)C [Example 28, 6-((2-(1-isopropyl-1H-pyrazol-5-yl)pyridin-3-yl)methoxy-d2)benzo[d]oxazole-7-carbaldehyde] | −11.90 | −40.70%
24 | [2H]C([2H])([2H])C(n1ncc(F)c1-c1ncncc1COc1cc(F)cc(O)c1C=O)C([2H])([2H])[2H] [Example 34, 4-fluoro-2-((4-(4-fluoro-1-(propan-2-yl-1,1,1,3,3,3-d6)-1H-pyrazol-5-yl)pyrimidin-5-yl)methoxy)-6-hydroxybenzaldehyde] | −6.50 | −10.00%
25 | [2H]C([2H])([2H])C(n1ncc(F)c1-c1ncncc1COc1cccc(O)c1C=O)C([2H])([2H])[2H] [Example 35, 2-((4-(4-fluoro-1-(propan-2-yl-1,1,1,3,3,3-d6)-1H-pyrazol-5-yl)pyrimidin-5-yl)methoxy)-6-hydroxybenzaldehyde] | −10.30 | −29.80%
26 | [2H]C([2H])(Oc1cc(F)cc(O)c1C=O)c1cncnc1-c1ccnn1C(C)C [Example 39, 4-fluoro-2-hydroxy-6-((4-(1-isopropyl-1H-pyrazol-5-yl)pyrimidin-5-yl)methoxy-d2)benzaldehyde] | −12.20 | −29.30%
27 | [2H]C([2H])(Oc1cccc(O)c1C=O)c1cncnc1-n1ccnc1C(C)C [Example 42, 2-hydroxy-6-((4-(2-isopropyl-1H-imidazol-1-yl)pyrimidin-5-yl)methoxy-d2)benzaldehyde] | −10.20 | −23.10%
28 | [2H]C([2H])(Oc1ccc2ncoc2c1C=O)c1cncnc1-n1ccnc1C(C)C [Example 43, 6-((4-(2-isopropyl-1H-imidazol-1-yl)pyrimidin-5-yl)methoxy-d2)benzo[d]oxazole-7-carbaldehyde] | −9.90 | −28.10%
29 | [2H]C(C)(C)n1nccc1-c1ncccc1COc1cccc(O)c1C=O [Example 48, 2-hydroxy-6-((2-(1-(propan-2-yl-2-d)-1H-pyrazol-5-yl)pyridin-3-yl)methoxy)benzaldehyde] | −11 | −38.10%
30 | [2H]C(C)(C)n1nccc1-c1ncncc1COc1cccc(O)c1C=O [Example 50, 2-hydroxy-6-((4-(1-(propan-2-yl-2-d)-1H-pyrazol-5-yl)pyrimidin-5-yl)methoxy)benzaldehyde] | −16.10 | −38.4.%
31 | [2H]C(C)(C)n1nccc1-c1nccnc1COc1cccc(O)c1C=O [Example 51, 2-hydroxy-6-((3-(1-(propan-2-yl-2-d)-1H-pyrazol-5-yl)pyrazin-2-yl)methoxy)benzaldehyde] | −13.10 | −36.40%
